Data from ChEMBL document CHEMBL5625185 (Eur J Med Chem, 2023).

Key:
Format in all cases: ADME, organism-based
Conditions in all cases: in vivo; call rule not given here
[1] = Cmax in wild type mouse at 50 mg/kg, po measured upto 8 hrs by UPLC-QTOFMS analysis
[2] = Drug distribution in wild type mouse liver at 50 mg/kg, po measured after 1 hr by UPLC-QTOFMS analysis
[3] = Drug distribution in wild type mouse kidney at 50 mg/kg, po measured after 1 hr by UPLC-QTOFMS analysis
[4] = Drug distribution in wild type mouse lung at 50 mg/kg, po measured after 1 hr by UPLC-QTOFMS analysis
[5] = Drug distribution in wild type mouse spleen at 50 mg/kg, po measured after 1 hr by UPLC-QTOFMS analysis
[6] = Drug distribution in wild type mouse brain at 50 mg/kg, po measured after 1 hr by UPLC-QTOFMS analysis
[7] = Drug distribution in wild type mouse testis at 50 mg/kg, po measured after 1 hr by UPLC-QTOFMS analysis

Row | SMILES | Cmax [1] | Drug uptake [2] | Drug uptake [3] | Drug uptake [4] | Drug uptake [5] | Drug uptake [6] | Drug uptake [7]
1 | COc1ccc2c3c([nH]c2c1)[C@H](CC(C)C)N1C(=O)[C@H](CCC(=O)NC(C)C)NC(=O)[C@@H]1C3 | 8.74 µM | Active | Active | Active | Active | Not Active | Not Active
2 | COc1ccc2c3c([nH]c2c1)[C@H](CC(C)C)N1C(=O)[C@H](CCC(=O)NC(C)(C)C)NC(=O)[C@@H]1C3 |  | Active | Active | Active | Active | Not Active | Not Active
